Active and inactive are the calls of the source. The calls are words filed in the database; no cut-off is given here.
Experiments:
[1] = system: Plasmodium falciparum; assay: microbe, parasite or virus in culture; conditions: Dd2, 48 h
Description: Antiplasmodial activity against chloroquine-resistant Plasmodium falciparum Dd2 incubated for 48 hrs by parasite lactate dehydrogenase assay

[2] = system: Plasmodium falciparum; assay: microbe, parasite or virus in culture; conditions: NF54, 48 h
Description: Antiplasmodial activity against chloroquine-sensitive Plasmodium falciparum NF54 incubated for 48 hrs by parasite lactate dehydrogenase assay

[3] = system: Plasmodium berghei; assay: Antimalarial activity against Plasmodium berghei infected in mouse assessed as suppression in parasitemia at 11.1 mg/kg, ip dosed once daily on days 0, 1, and 2 days post infection measured on day 7 post infection relative to untreated control; assay type: functional
[4] = system: Plasmodium berghei; assay: Antimalarial activity against Plasmodium berghei infected in mouse assessed as parasitemia cure at 33.3 mg/kg, ip dosed once daily on days 0, 1, and 2 days post infection measured on day 28 post infection; assay type: functional, organism-based
[5] = system: CHO; assay: Cytotoxicity in CHO cells assessed as reduction in cell viability; assay type: cell-based; conditions: Cricetulus griseus
[6] = system: Plasmodium berghei; assay: Antimalarial activity against Plasmodium berghei infected in mouse assessed as mean survival time at 11.1 mg/kg, ip dosed once daily on days 0, 1, and 2 days post infection measured on day 28 post infection (reference value: 13.2 days); assay type: functional
[7] = system: Plasmodium berghei; assay: Antimalarial activity against Plasmodium berghei infected in mouse assessed as host survival at 11.1 mg/kg, ip dosed once daily on days 0, 1, and 2 days post infection measured on day 28 post infection relative to untreated control; assay type: functional, organism-based
[8] = in vitro; conditions: hamster, CHO cells versus Plasmodium falciparum NF54
Description: Selectivity index, ratio of IC50 for CHO cells to IC50 for antiplasmodial activity against chloroquine-sensitive Plasmodium falciparum NF54

[9] = system: Plasmodium falciparum; assay: Potency index, ratio of IC50 for chloroquine to IC50 for test compound for antiplasmodial activity against chloroquine-resistant Plasmodium falciparum Dd2 incubated for 48 hrs by parasite lactate dehydrogenase assay; assay type: functional
[10] = system: Plasmodium falciparum; assay: Potency index, ratio of IC50 for artemisinin to IC50 for test compound for antiplasmodial activity against chloroquine-resistant Plasmodium falciparum Dd2 incubated for 48 hrs by parasite lactate dehydrogenase assay; assay type: functional
[11] = system: Plasmodium berghei; assay: Antimalarial activity against Plasmodium berghei infected in mouse assessed as parasitemia cure at 11.1 mg/kg, ip dosed once daily on days 0, 1, and 2 days post infection measured on day 28 post infection; assay type: functional, organism-based
[12] = system: Plasmodium berghei; assay: Antimalarial activity against Plasmodium berghei infected in mouse assessed as suppression in parasitemia at 33.3 mg/kg, ip dosed once daily on days 0, 1, and 2 days post infection measured on day 7 post infection relative to untreated control; assay type: functional
[13] = system: Plasmodium berghei; assay: Antimalarial activity against Plasmodium berghei infected in mouse assessed as mean survival time at 33.3 mg/kg, ip dosed once daily on days 0, 1, and 2 days post infection measured on day 28 post infection (reference value: 13.2 days); assay type: functional
[14] = in vitro; conditions: hamster, CHO cells versus Plasmodium falciparum Dd2
Description: Selectivity index, ratio of IC50 for CHO cells to IC50 for antiplasmodial activity against chloroquine-resistant Plasmodium falciparum Dd2

[15] = system: Plasmodium berghei; assay: Antimalarial activity against Plasmodium berghei infected in mouse assessed as suppression in parasitemia at 33.3 mg/kg, ip dosed once daily on days 0, 1, and 2 days post infection measured on day 5 post infection relative to untreated control; assay type: functional
[16] = system: Plasmodium berghei; assay: Antimalarial activity against Plasmodium berghei infected in mouse assessed as host survival at 33.3 mg/kg, ip dosed once daily on days 0, 1, and 2 days post infection measured on day 28 post infection relative to untreated control; assay type: functional, organism-based
[17] = system: Plasmodium berghei; assay: Antimalarial activity against Plasmodium berghei infected in mouse assessed as suppression in parasitemia at 11.1 mg/kg, ip dosed once daily on days 0, 1, and 2 days post infection measured on day 5 post infection relative to untreated control; assay type: functional
[18] = system: Plasmodium berghei; assay: Antimalarial activity against Plasmodium berghei infected in mouse assessed as mean survival time at 33.3 mg/kg, po dosed once daily on days 0, 1, and 2 days post infection measured on day 28 post infection (reference value: 13.2 days); assay type: functional
[19] = system: Plasmodium berghei; assay: Antimalarial activity against Plasmodium berghei infected in mouse assessed as mean survival time at 11.1 mg/kg, po dosed once daily on days 0, 1, and 2 days post infection measured on day 28 post infection (reference value: 13.2 days); assay type: functional
[20] = system: Plasmodium berghei; assay: Antimalarial activity against Plasmodium berghei infected in mouse assessed as host survival at 11.1 mg/kg, po dosed once daily on days 0, 1, and 2 days post infection measured on day 28 post infection relative to untreated control; assay type: functional, organism-based
[21] = system: Plasmodium berghei; assay: Antimalarial activity against Plasmodium berghei infected in mouse assessed as parasitemia cure at 11.1 mg/kg, po dosed once daily on days 0, 1, and 2 days post infection measured on day 28 post infection; assay type: functional, organism-based
[22] = system: Plasmodium berghei; assay: Antimalarial activity against Plasmodium berghei infected in mouse assessed as suppression in parasitemia at 33.3 mg/kg, po dosed once daily on days 0, 1, and 2 days post infection measured on day 7 post infection relative to untreated control; assay type: functional
[23] = system: Plasmodium berghei; assay: Antimalarial activity against Plasmodium berghei infected in mouse assessed as suppression in parasitemia at 11.1 mg/kg, po dosed once daily on days 0, 1, and 2 days post infection measured on day 7 post infection relative to untreated control; assay type: functional
[24] = system: Plasmodium berghei; assay: Antimalarial activity against Plasmodium berghei infected in mouse assessed as host survival at 33.3 mg/kg, po dosed once daily on days 0, 1, and 2 days post infection measured on day 28 post infection relative to untreated control; assay type: functional, organism-based
[25] = system: Plasmodium berghei; assay: Antimalarial activity against Plasmodium berghei infected in mouse assessed as suppression in parasitemia at 33.3 mg/kg, po dosed once daily on days 0, 1, and 2 days post infection measured on day 5 post infection relative to untreated control; assay type: functional
[26] = system: Plasmodium berghei; assay: Antimalarial activity against Plasmodium berghei infected in mouse assessed as suppression in parasitemia at 11.1 mg/kg, po dosed once daily on days 0, 1, and 2 days post infection measured on day 5 post infection relative to untreated control; assay type: functional
[27] = system: Heme; assay: Binding affinity to monomeric heme assessed as mole fraction for 1:1 binding stoichiometry with monomeric heme at pH 5.6 by spectrophotometric titration analysis
[28] = system: Heme; assay: Binding affinity to monomeric heme assessed as decrease in the Soret band at pH 5.6 by spectrophotometric titration analysis
[29] = system: Heme; assay: Binding affinity to monomeric heme assessed as decrease in the Soret band at pH 7.4 by spectrophotometric titration analysis
[30] = Intrinsic clearance human liver microsomes in the presence of NADPH; assay type: ADME, Microsome; conditions: read-out: CLH
[31] = system: Heme; assay: Binding affinity to monomeric heme assessed as mole fraction for 1:1 binding stoichiometry with monomeric heme at pH 7.4 by spectrophotometric titration analysis
[32] = Half life human liver microsomes in the presence of NADPH; assay type: ADME, Microsome
[33] = system: Plasmodium berghei; assay: Antimalarial activity against Plasmodium berghei infected in mouse assessed as parasitemia cure at 33.3 mg/kg, po dosed once daily on days 0, 1, and 2 days post infection measured on day 28 post infection; assay type: functional, organism-based

C[C@H]1[C@H](OC(=O)CCC(=O)O)O[C@@H]2O[C@@]3(C)CC[C@H]4[C@H](C)CC[C@@H]1[C@@]24OO3 [ARTESUNATE]
IC50 [1]: 13 nM | IC50 [2]: 10 nM

Cc1cc(N2CCCCC2)nc(NCc2cc(Nc3ccnc4cc(Cl)ccc34)ccc2F)n1
Activity [3]: 100% | IC50 [1]: 4.69 nM | Activity [4]: Active | IC50 [5]: 3180 nM | IC50 [2]: 13.4 nM | MST [6]: 28 days | Activity [7]: Active | selectivity ratio [8]: 237 | Ratio IC50 [9]: 47.3 | Ratio IC50 [10]: 2.8 | Activity [11]: inactive | Activity [12]: 100% | MST [13]: 28 days | selectivity ratio [14]: 680 | Activity [15]: 100% | Activity [16]: Active | Activity [17]: 100%

Cc1cc(N2CCCC2)nc(NCc2cc(Nc3ccnc4cc(Cl)ccc34)ccc2F)n1
IC50 [1]: 74.9 nM | IC50 [2]: 89 nM

CCN(CC)CCCC(C)Nc1ccnc2cc(Cl)ccc12 (stereo unspecified) [CHLOROQUINE]
MST [18]: 28 days | MST [19]: 28 days | Activity [20]: Active | Activity [21]: inactive | Activity [22]: 100% | Activity [23]: 99.2% | Activity [24]: Active | Activity [25]: 100% | Activity [26]: 100%

Cc1cc(NCc2cc(Nc3ccnc4cc(Cl)ccc34)ccc2F)nc(N2CCN(C)CC2)n1
Activity [3]: 92.9% | Activity (mole fraction) [27]: 0.5 | IC50 [1]: 5.24 nM | Activity [28]: Active | Activity [29]: Active | IC50 [2]: 12.5 nM | MST [6]: 19.8 days | microsomal CLint [30]: 82.8 µL/min/mg | Activity [11]: inactive | Activity (mole fraction) [31]: 0.5 | half-life [32]: 16.7 min | Activity [12]: 100% | MST [13]: 28 days | Activity [15]: 100% | Activity [16]: Active | Activity [17]: 91.9%

Cc1cc(N2CCN(C)CC2)nc(NCc2cc(Nc3ccnc4cc(Cl)ccc34)ccc2F)n1
IC50 [1]: 18.4 nM | IC50 [5]: 58200 nM | IC50 [2]: 15.3 nM | selectivity ratio [8]: 3800 | selectivity ratio [14]: 3160

CCN1CCN(c2cc(C)nc(NCc3cc(Nc4ccnc5cc(Cl)ccc45)ccc3F)n2)CC1
IC50 [1]: 23.4 nM | IC50 [5]: 80300 nM | IC50 [2]: 28.9 nM | selectivity ratio [8]: 2780 | selectivity ratio [14]: 3430

Cc1cc(NCc2cc(Nc3ccnc4cc(Cl)ccc34)ccc2F)nc(N2CCCCC2)n1
IC50 [1]: 17.2 nM | IC50 [2]: 13.8 nM

Cc1cc(N2CCSCC2)nc(NCc2cc(Nc3ccnc4cc(Cl)ccc34)ccc2F)n1
IC50 [1]: 16 nM | IC50 [5]: 2710 nM | IC50 [2]: 7.47 nM | selectivity ratio [8]: 362 | selectivity ratio [14]: 169

Cc1cc(Cl)nc(NCc2cc(Nc3ccnc4cc(Cl)ccc34)ccc2F)n1
IC50 [1]: 297 nM | IC50 [2]: 231 nM

CCN1CCN(c2nc(C)cc(NCc3cc(Nc4ccnc5cc(Cl)ccc45)ccc3F)n2)CC1
IC50 [1]: 7.63 nM | IC50 [2]: 11.2 nM

Cc1cc(NCc2cc(Nc3ccnc4cc(Cl)ccc34)ccc2F)nc(N2CCSCC2)n1
IC50 [1]: 33.1 nM | IC50 [5]: 15200 nM | IC50 [2]: 22.8 nM | selectivity ratio [8]: 664 | selectivity ratio [14]: 459

Cc1cc(NCc2cc(Nc3ccnc4cc(Cl)ccc34)ccc2F)nc(N2CCN(c3ccccc3)CC2)n1
IC50 [1]: 31.3 nM | IC50 [5]: 17400 nM | IC50 [2]: 17.7 nM | selectivity ratio [8]: 981 | selectivity ratio [14]: 555

Cc1cc(N2CCN(c3ccccc3)CC2)nc(NCc2cc(Nc3ccnc4cc(Cl)ccc34)ccc2F)n1
IC50 [1]: 62.2 nM | IC50 [5]: 17500 nM | IC50 [2]: 69.8 nM | selectivity ratio [8]: 251 | selectivity ratio [14]: 282

Cc1cc(N2CCOCC2)nc(NCc2cc(Nc3ccnc4cc(Cl)ccc34)ccc2F)n1
IC50 [1]: 17.9 nM | IC50 [5]: 4590 nM | IC50 [2]: 12.1 nM | selectivity ratio [8]: 380 | selectivity ratio [14]: 256

Cc1cc(NCc2cc(Nc3ccnc4cc(Cl)ccc34)ccc2F)nc(N2CCCC2)n1
IC50 [1]: 8.23 nM | IC50 [5]: 3800 nM | IC50 [2]: 12.4 nM | selectivity ratio [8]: 306 | selectivity ratio [14]: 462

CCN(CC)Cc1cc(Nc2ccnc3cc(Cl)ccc23)ccc1O [AMODIAQUINE]
MST [18]: 28 days | MST [19]: 28 days | Activity [20]: Active | Activity [22]: 100% | Activity [23]: 100% | Activity [33]: Active | Activity [24]: Active | Activity [25]: 100% | microsomal CLint [30]: 431 µL/min/mg | half-life [32]: 5.4 min | Activity [26]: 100%

Cc1cc(NCc2cc(Nc3ccnc4cc(Cl)ccc34)ccc2F)nc(N2CCCCCC2)n1
IC50 [1]: 27.2 nM | IC50 [2]: 16.9 nM

Cc1cc(N2CCCCCC2)nc(NCc2cc(Nc3ccnc4cc(Cl)ccc34)ccc2F)n1
IC50 [1]: 67.5 nM | IC50 [2]: 148 nM

NCc1cc(Nc2ccnc3cc(Cl)ccc23)ccc1F
IC50 [1]: 58.7 nM | IC50 [5]: 31300 nM | IC50 [2]: 46.1 nM | selectivity ratio [8]: 680 | selectivity ratio [14]: 533

Cc1cc(NCc2cc(Nc3ccnc4cc(Cl)ccc34)ccc2F)nc(Cl)n1
IC50 [1]: 214 nM | IC50 [2]: 183 nM

Cc1cc(NCc2cc(Nc3ccnc4cc(Cl)ccc34)ccc2F)nc(N2CCOCC2)n1
IC50 [1]: 33.3 nM | IC50 [5]: 14600 nM | IC50 [2]: 26.7 nM | selectivity ratio [8]: 544 | selectivity ratio [14]: 437

N#Cc1cc(Nc2ccnc3cc(Cl)ccc23)ccc1F
IC50 [1]: 3200 nM | IC50 [2]: > 3360 nM

Reference: ChEMBL document CHEMBL4433224, “Hybridization of Fluoro-amodiaquine (FAQ) with Pyrimidines: Synthesis and Antimalarial Efficacy of FAQ-Pyrimidines” (ACS Med Chem Lett, 2019)
